Assay results taken from US20230365563A1, “QUINAZOLINE COMPOUND AND APPLICATION THEREOF” (SHANGHAI PHARMACEUTICALS HOLDING CO., LTD., priority 2020, published 2023).
pIC50: −log10 of the molar value. Counter-ions that a name gives are not always drawn.

target: T1, KRAS-G12D and SOS1 (Homo sapiens, UniProt P01116, G12D); assay: Inhibition of KRAS-G12D/SOS1 binding (Cisbio binding kit, 665/615 ratio), Effect Embodiment A; conditions: read-out: GTP-KRAS-G12D:SOS1 IC50
T1 construct: purchased
Summary of the method: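 Compounds are tested over eleven threefold dilution steps in duplicate, with final DMSO at 1%.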

T1 sequence (P01116 1-188 isoform P01116-2 G12D): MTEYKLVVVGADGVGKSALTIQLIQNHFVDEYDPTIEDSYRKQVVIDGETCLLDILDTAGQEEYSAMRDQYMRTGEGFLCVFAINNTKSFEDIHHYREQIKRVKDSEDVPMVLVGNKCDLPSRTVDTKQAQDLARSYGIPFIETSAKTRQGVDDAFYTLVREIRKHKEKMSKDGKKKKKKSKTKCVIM

**Q.** With `CN1CCC[C@H]1COc1nc(N2CCN(C(=O)CCN)[C@@H](CC#N)C2)c2cc(Cl)c(-c3cc(O)cc4ccccc34)c(F)c2n1` (single isomer, unassigned) [Compound 157, 2-((S)-1-(3-aminopropionyl)-4-((S or R)-6-chloro-8-fluoro-7-(3-hydroxynaphthalen-1-yl)-2-((S)-1-methylpyrrolidine-2-yl)methoxy)quinazolin-4-yl)-piperazin-2-yl)acetonitrile ditrifluoroacetate] as the compound, how does the pIC50 read?
**A.** 6.50

**Q.** `CN1CCC[C@H]1COc1nc(N2CC3CCC(C2)N3)c2cc(F)c(-c3cc(O)cc4ccccc34)c(F)c2n1` (single isomer, unassigned) [Compound 160b, (S or R) 4-(4-((1R,5S)-3,8-diazabicyclo[3.2.1]octan-3-yl)-6,8-difluoro-2-((S)-1-methylpyrrolidin-2-yl)methoxy)quinazolin-7-yl)naphthalen-2-ol dihydrochloride] was tested. Which pIC50 did it give?
**A.** 6.93

**Q.** With `CN(C)C12CC(c3nc(N4CC5CCC(C4)N5)c4cc(Cl)c(-c5cc(O)cc6ccccc56)c(F)c4n3)(C1)C2` (single isomer, unassigned) [Compound 162a, 4-((S or R)-4-((1R,5S)-3,8-diazabicyclo[3.2.1]octan-3-yl)-6-chloro-2-(3-(dimethylamino)bicyclo[1.1.1]pentan-1-yl)-8-fluoroquinazolin-7-yl)naphthalen-2-ol dihydrochloride] as the compound, how does the pIC50 read?
**A.** 6.17

**Q.** `Oc1cc(-c2c(Cl)cc3c(N4CC5CCC(C4)N5)nc(OCC(F)CN4C5CCC4COC5)nc3c2F)c2ccccc2c1` (single isomer, unassigned) [Compound 179a, ((4R or 4S)-4-(2-((2R or 2S)-3-(3-oxa-8-azabicyclo[3.2.1]octan-8-yl)-2-fluoropropoxy)-4-((1R,5S)-3,8-diazabicyclo[3.2.1]octan-3-yl)-6-chloro-8-fluoroquinazolin-7-yl)naphthalen-2-ol diformate] was tested. Which pIC50 did it give?
**A.** 6.56

**Q.** How did the pIC50 turn out when `CCCN(C)CC1(COc2nc(N3C[C@H]4CC[C@@H](C3)N4)c3cc(Cl)c(-c4cc(O)cc5ccccc45)c(F)c3n2)CC1` (single isomer, unassigned) [Compound 185, (R or S)-4-(4-((1R,5S)-3,8-diazabicyclo[3.2.1]octan-3-yl)-6-chloro-8-fluoro-2-((1-((methyl(propyl)amino)methyl)cyclopropyl)methoxy)quinazolin-7-yl)naphthalen-2-ol diformate] was run?
**A.** 6.41

**Q.** How did the pIC50 turn out when `CN1CCC[C@H]1C1(Oc2nc(N3CC4CCC(C3)N4)c3cc(Cl)c(-c4cc(O)cc5ccccc45)c(F)c3n2)CC1` (single isomer, unassigned) [Compound 189, 4-((R or S)-4-((1R,5S)-3,8-diazabicyclo[3.2.1]octan-3-yl)-6-chloro-8-fluoro-2-(1-((S)-1-methylpyrrolidin-2-yl)cyclopropoxy)quinazolin-7-yl)naphthalen-2-ol diformate] was run?
**A.** 5.08

**Q.** With `CN1CCC[C@H]1COc1nc(N2CC3CCC(C2)N3)c2cc(Cl)c(-c3c(F)c(O)cc4ccccc34)c(F)c2n1` (single isomer, unassigned) [Compound 195a, (R or S)-4-(4-((1R,5S)-3,8-diazabicyclo[3.2.1]octan-3-yl)-6-chloro-8-fluoro-2-((S)-1-methylpyrrolidin-2-yl)methoxy)quinazolin-7-yl)-3-fluoronaphthalen-2-ol diformate] as the compound, how does the pIC50 read?
**A.** 5.06

**Q.** How did the pIC50 turn out when `Oc1cc(Cl)c(C2CC2)c(-c2c(Cl)cc3c(N4CC5CCC(C4)N5)nc(OCCCN4C5CCC4COC5)nc3c2F)c1` (single isomer, unassigned) [Compound 197b, 3-((7S or 7R)-2-(3-(3-oxa-8-azabicyclo[3.2.1]octan-8-yl)propoxy)-4-((1R,5S)-3,8-diazabicyclo[3.2.1]octan-3-yl)-6-chloro-8-fluoroquinazolin-7-yl)-5-chloro-4-cyclopropylphenol formate] was run?
**A.** 5.57

**Q.** `O=S1(=O)CC2CCC(C1)N2CCCOc1nc(N2CC3CCC(C2)N3)c2cc(Cl)c(-c3cc(O)cc4ccccc34)c(F)c2n1` (single isomer, unassigned) [Compound 212, 8-(3-((S or R)-4-((1R,5S)-3,8-diazabicyclo[3.2.1]octan-3-yl)-6-chloro-8-fluoro-7-(3-hydroxynaphthalen-1-yl)quinazolin-2-yl)oxy)propyl)-3-thio-8-azabicyclo[3.2.1]octane-3,3-dioxide formate] was tested. Which pIC50 did it give?
**A.** 6.26

**Q.** How did the pIC50 turn out when `N=[S+]1([O-])CC2CCC(C1)N2CCCOc1nc(N2CC3CCC(C2)N3)c2cc(Cl)c(-c3cc(O)cc4ccccc34)c(F)c2n1` (single isomer, unassigned) [Compound 213a, (1R,3S or 3R,5S)-8-(3-((4-((1R,5S)-3,8-diazabicyclo[3.2.1]octan-3-yl)-6-chloro-8-fluoro-7-(3-hydroxynaphthalen-1-yl)quinazolin-2-yl)oxy)propyl)-3-imino-3λ^6-thia-8-azabicyclo[3.2.1]octane 3-oxide formate] was run?
**A.** 6.29

**Q.** How did the pIC50 turn out when `N=[S+]1([O-])CC2CCC(C1)N2CCCOc1nc(N2CC3CCC(C2)N3)c2cc(Cl)c(-c3cc(O)cc4ccccc34)c(F)c2n1` (single isomer, unassigned) [Compound 213b, (1R,3R or 3S,5S)-8-(3-((4-((1R,5S)-3,8-diazabicyclo[3.2.1]octan-3-yl)-6-chloro-8-fluoro-7-(3-hydroxynaphthalen-1-yl)quinazolin-2-yl)oxy)propyl)-3-imino-3λ^6-thia-8-azabicyclo[3.2.1]octane 3-oxide formate] was run?
**A.** 6.17

**Q.** With `Oc1cc(-c2c(Cl)cc3c(N4CC5CCC(C4)N5)nc(OC[C@@]45CCCN4C[C@H](F)C5)nc3c2F)c2c(F)c(F)ccc2c1` (single isomer, unassigned) [Compound 214b, 4-(R or S)-4-((1R,5S)-3,8-diazabicyclo[3.2.1]octane-3-yl)-6-chloro-8-fluoro-2-((2R,7aS)-2-fluorotetrahydro-1H-pyrrolidin-7a(5H)-yl) methoxy) quinazolin-7-yl)-5,6-difluoronaphthalen-2-ol diformate] as the compound, how does the pIC50 read?
**A.** 5.57

**Q.** With `CCc1c(F)ccc2cc(O)cc(-c3c(F)cc4c(N5CC6CCC(C5)N6)nc(OCCCN5C6CCC5COC6)nc4c3F)c12` (single isomer, unassigned) [Compound 215b, 4-((7R or 7S)-2-(3-(3-oxa-8-azabicyclo[3.2.1]octan-8-yl)propoxy)-4-((1R,5S)-3,8-diazabicyclo[3.2.1]octan-3-yl)-6,8-difluoroquinazolin-7-yl)-5-ethyl-6-fluoronaphthalen-2-ol diformate] as the compound, how does the pIC50 read?
**A.** 5.80

**Q.** `C[C@@H](COc1nc(N2CC3CCC(C2)N3)c2cc(Cl)c(-c3cc(O)cc4ccccc34)c(F)c2n1)CN1CC(C)(C)OC(C)(C)C1` (single isomer, unassigned) [Compound 217, 4-((S or R)-4-((1R,5S)-3,8-diazabicyclo[3.2.1]octan-3-yl)-6-chloro-8-fluoro-2-((R)-2-methyl-3-(2,2,6,6-tetramethylmorpholinyl)propoxy)quinazolin-7-yl)naphthalen-2-ol formate] was tested. Which pIC50 did it give?
**A.** 6.72

**Q.** `Oc1cc(-c2c(Cl)cc3c(N4CC5CCC(C4)N5)nc(OCC(CN4C5CCC4COC5)C(F)(F)F)nc3c2F)c2ccccc2c1` (single isomer, unassigned) [Compound 218b, 4-((7S or 7R)-2-((2R or 2S)-2-((3-oxa-8-azabicyclo[3.2.1]octan-8-yl)methyl)-3,3,3-trifluoropropoxy)-4-((1R,5S)-3,8-diazabicyclo[3.2.1]octan-3-yl)-6-chloro-8-fluoroquinazolin-7-yl)naphthalen-2-ol formate] was tested. Which pIC50 did it give?
**A.** 6.60

**Q.** `CC1(C)CN(CCCOc2nc(N3CC4CCC(C3)N4)c3cc(Cl)c(-c4cc(O)cc5ccccc45)c(F)c3n2)CC(C)(C)O1` (single isomer, unassigned) [Compound 222, 4-((S or R)-4-((1R,5S)-3,8-diazabicyclo[3.2.1]octan-3-yl)-6-chloro-8-fluoro-2-(3-(2,2,6,6-tetramethylmorpholinyl)propoxy)quinazolin-7-yl)naphthalen-2-ol formate] was tested. Which pIC50 did it give?
**A.** 6.24

**Q.** With `CCc1c(F)ccc2cc(O)cc(-c3c(Cl)cc4c(N5CC6CCC(C5)N6)nc(OC[C@H](C)CN5C6CCC5COC6)nc4c3F)c12` (single isomer, unassigned) [Compound 233a, 4-((7S or 7R)-2-((2R)-3-(3-oxa-8-azabicyclo[3.2.1]octan-8-yl)-2-methylpropoxy)-4-((1R,5S)-3,8-diazabicyclo[3.2.1]octan-3-yl)-6-chloro-8-fluoroquinazolin-7-yl)-5-ethyl-6-fluoronaphthalen-2-ol formate] as the compound, how does the pIC50 read?
**A.** 5.48

**Q.** `CCc1c(F)ccc2cc(O)cc(-c3c(F)cc4c(N5CC6CCC(C5)N6)nc(OCCCN5C[C@@H](C)O[C@@H](C)C5)nc4c3F)c12` (single isomer, unassigned) [Compound 250b, (R or S)-4-(4-((1R,5S)-3,8-diazacyclo[3.2.1]octan-3-yl)-2-(3-((2R,6S)-2,6-dimethylmorpholinyl)propoxy)-6,8-difluoroquinazolin-7-yl)-5-ethyl-6-fluoronaphthalen-2-ol formate] was tested. Which pIC50 did it give?
**A.** 5.79

**Q.** How did the pIC50 turn out when `C#Cc1c(F)ccc2cc(O)cc(-c3c(Cl)cc4c(N5CC6CCC(C5)N6)nc(OCCCN5C6CCC5COC6)nc4c3F)c12` (single isomer, unassigned) [Compound 255a, (4S or 4R)-4-(2-(3-(3-oxa-8-azabicyclo[3.2.1]octan-8-yl)propoxy)-4-(1R,5S)-3,8-diazabicyclo[3.2.1]octan-3-yl)-6-chloro-8-fluoroquinazolin-7-yl)-5-ethynyl-6-fluoronaphthalen-2-ol diformate] was run?
**A.** 5.29

**Q.** With `CCc1cccc2cc(O)cc(-c3c(F)cc4c(N5CC6CCC(C5)N6)nc(OCCCN5C6CCC5COC6)nc4c3F)c12` (single isomer, unassigned) [Compound 271b, 4-((7R or 7S)-2-(3-(3-oxa-8-azabicyclo[3.2.1]octan-8-yl)propoxy)-4-((1R,5S)-3,8-diazabicyclo[3.2.1]octan-3-yl)-6,8-difluoroquinazolin-7-yl)-5-ethylnaphthalen-2-ol diformate] as the compound, how does the pIC50 read?
**A.** 5.03
